Measured values from patent US5663139A, “Inhibitors of retroviral proteases” (Hoechst Aktiengesellschaft, priority 1992, dated 1997).
Where a name gives a salt, the structure may show the parent alone.

Molecular target: T1, HIV protease (Human immunodeficiency virus type 1 group M subtype B, UniProt P04585)
T1 construct: The HIV protease is composed of 99 amino acids and evidently excises itself out of the pol polyprotein
Experiment: HIV protease enzyme test (HPLC cleavage of heptapeptide substrate H-Ser-Phe-Asn-Phe-Opr-Gln-Ile-OH)
Type: biochemical
Conditions: inhibitor concentration at which the cleavage rate is halved, 37° C., 2 hours
From the text: In particular, they inhibit HIV protease. Their enzyme-inhibitory effect, which is in the milli- to subnano-molar range, can be determined as follows.
The substrates of the HIV protease which have been employed thus far include the heptapeptide: H-Ser-Phe-Asn-Phe-Pro-Gln-Ile-OH (SEQ ID NO. 1) (P. L. Darke et al., Biophys. Res. Commun. 156 (1988) 297-303). When this peptide is used as the substrate, the HIV protease cleaves it between the second Phe and the Pro.
General instructions for testing inhibitors of the HIV proteases:
2 mg of H-Ser-Phe-Asn-Phe-Opr-Gln-Ile-OH (H-Opr-OH=5-oxaproline) (SEQ ID NO. 1) are dissolved in 1 ml of MGTE 15 buffer (use of ultrasonication if required) and this solution is subsequently filtered through a sterilizing filter (0.45 μm).
2.5 times the necessary quantity of inhibitor to give the desired molarity per ml of solution is weighed out and dissolved in DMSO (10% of the final volume). This solution is diluted with MGTE 15 buffer to the final volume and then filtered through a sterilizing filter (0.45 μm).
5 μl of the HIV protease solution are diluted with MGTE25 buffer as required.
In each case, 10 μl of the substrate solution are pipetted into a test tube (16×100) having a screw cap. 10 μl of MGTE 15 buffer, which contains 10% DMSO, are pipetted in for the blank experiment. 10 μl of the inihibitor solutions are added to each of the remaining test tubes. The tubes are incubated at 37° C. for 5-10 minutes and 5 μl of the protease solution are then added to each sample. Following reaction at 37° C. for 2 hours, 10 or 20 μl (depending on the sensitivity of the HPLC equipment) are pipetted out from each sample, added to microvials and diluted with 120 μl of the HPLC eluant.
e) Conditions for the HPLC Analysis
Under the conditions chosen for this experiment, the heptapeptide is separated from the N-terminal tetrapeptide resulting from the enzymic cleavage. The % content of tetrapeptide peak related to the sum of tetrapeptide+heptapeptide gives the cleavage rate. The following IC50 values indicate the inhibitor concentrations at which the cleavage rate is halved: […]

In order of falling IC50:
1. CCOP(=O)(C(Cc1ccccc1)NC(=O)[C@@H](NC(=O)OCc1ccccc1)C(C)C)C(O)C(Cc1ccccc1)NC(=O)[C@@H](NC(=O)OCc1ccccc1)C(C)C (some centres unmarked) [Example 3]  70 nM
2. CCOP(=O)(C(Cc1ccccc1)NC(=O)[C@@H](NC(=O)[C@@H](N)Cc1cccc2ccccc12)C(C)C)C(O)C(Cc1ccccc1)NC(=O)[C@@H](NC(=O)[C@@H](N)Cc1cccc2ccccc12)C(C)C (stereo partly drawn) [Example 7, Ethyl 1-{2-[(L-naphthylalanyl-L-valyl)amino]-1-hydroxy-3-phenylpropyl},1-{1-[(L-naphthylalanyl-L-valyl)amino]-2-phenylethyl}phosphinate bistrifluoroacetate]  15 nM
3. CC(C)[C@H](NC(=O)C(Cc1cccc2ccccc12)CS(=O)(=O)C(C)(C)C)C(=O)NC(Cc1ccccc1)C(O)P(=O)(O)C(Cc1ccccc1)NC(=O)[C@@H](NC(=O)C(Cc1cccc2ccccc12)CS(=O)(=O)C(C)(C)C)C(C)C (stereo partly drawn) [Example 10, 1-{2-[((2S(tert-Butylsulfonylmethyl)-3-(1-naphthyl)-propionyl)-L-valyl)amino]-1-hydroxy-3-phenylpropyl},1-{1-[((2S(tert-butylsulfonylmethyl)-3-(1-naphthyl)propionyl)-L-valyl)amino]-2-phenylethyl}phosphinic acid]  4.2 nM
4. CC(C)[C@H](NC(=O)OCc1ccccc1)C(=O)NC(Cc1ccccc1)C(O)P(=O)(O)C(Cc1ccccc1)NC(=O)[C@@H](NC(=O)OCc1ccccc1)C(C)C (stereo partly drawn) [Example 4, 1-{2-[(Benzyloxycarbonyl-L-valyl)amino]-1-hydroxy-3-phenylpropyl},1-{-[(benzyloxycarbonyl-L-valyl)amino]-2-phenylethyl}phosphinic acid]  1.3 nM
5. CC(C)[C@H](NC(=O)[C@@H](N)Cc1cccc2ccccc12)C(=O)NC(Cc1ccccc1)C(O)P(=O)(O)C(Cc1ccccc1)NC(=O)[C@@H](NC(=O)[C@@H](N)Cc1cccc2ccccc12)C(C)C (stereo partly drawn) [Example 8, 1-{2-[(L-Naphthylalanyl-L-valyl)amino]-1-hydroxy-3-phenylpropyl},1-{1-[(L-naphthylalanyl-L-valyl)amino]-2-phenylethyl}phosphinic acid dihydrobromide]  0.5 nM
